In ChEMBL document CHEMBL1201862, “PubChem BioAssay data set” (2004):
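Growth conditions: 96-well plates. Treatment: test compound, 48 hours, 5 concentrations. Analysis: linear interpolation between bracketing concentrations; unreached endpoints set to highest concentration. At the GI50, growth is halved.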 Activity calls are given as the source filed them. Cut-off read from the data, not from the text of the source: active = GI50 up to about 1.1 µM and inactive = higher.

Columns and labels:
Experiment in all cases: growth of human tumour cells (NCI), 48 h
DMS-114 = system: DMS-114
HCT-116 = system: HCT-116
KM12 = system: KM12
TK-10 = system: TK-10
OVCAR-8 = system: OVCAR-8
LXFL 529 = system: LXFL 529
SF-539 = system: SF-539
HOP-92 = system: HOP-92
SF-268 = system: SF-268
DMS-273 = system: DMS-273
OVCAR-4 = system: OVCAR-4
SK-MEL-2 = system: SK-MEL-2
SNB-19 = system: SNB-19
HL-60 = system: HL-60
RXF 393 = system: RXF 393
UACC-257 = system: UACC-257
ACHN = system: ACHN
LOX IMVI = system: LOX IMVI
HOP-62 = system: HOP-62
HOP-18 = system: HOP-18
HT-29 = system: HT-29
KM-20L2 = system: KM-20L2
NCI-H226 = system: NCI-H226
SN12C = system: SN12C
OVCAR-3 = system: OVCAR-3
K562 = system: K562
DLD-1 = system: DLD-1
CAKI-1 = system: CAKI-1
XF498 = system: XF498
OVCAR-5 = system: OVCAR-5
786-0 = system: 786-0
SNB-75 = system: SNB-75
CCRF-CEM = system: CCRF-CEM
SK-MEL-5 = system: SK-MEL-5
UO-31 = system: UO-31
U-251 = system: U-251
SK-OV-3 = system: SK-OV-3
MOLT-4 = system: MOLT-4
Malme-3M = system: Malme-3M
SF-295 = system: SF-295
M14 = system: M14
RPMI-8226 = system: RPMI-8226
IGROV-1 = system: IGROV-1
HCT-15 = system: HCT-15
HCC 2998 = system: HCC 2998
UACC-62 = system: UACC-62
A498 = system: A498
NCI-H522 = system: NCI-H522
NCI-H23 = system: NCI-H23
NCI-H460 = system: NCI-H460
COLO 205 = system: COLO 205
EKVX = system: EKVX
A549 = system: A549
M19-MEL = system: M19-MEL
SW-620 = system: SW-620
SNB-78 = system: SNB-78
SR = system: SR

O=C(O)c1cc2c3c(c1)[C@H]1C=CC[C@H]1CN3CC1CC=CC21 (some centres not stated)
GI50 (DMS-114): > 100 µM (inactive) | GI50 (HCT-116): > 100 µM (inactive) | GI50 (KM12): > 100 µM (inactive) | GI50 (TK-10): > 100 µM (inactive) | GI50 (OVCAR-8): > 100 µM (inactive) | GI50 (LXFL 529): > 100 µM (inactive) | GI50 (SF-539): > 100 µM (inactive) | GI50 (HOP-92): > 100 µM (inactive) | GI50 (SF-268): > 100 µM (inactive) | GI50 (DMS-273): > 100 µM (inactive) | GI50 (OVCAR-4): > 100 µM (inactive) | GI50 (SK-MEL-2): > 100 µM (inactive) | GI50 (SNB-19): > 100 µM (inactive) | GI50 (HL-60): > 100 µM (inactive) | GI50 (RXF 393): > 100 µM (inactive) | GI50 (UACC-257): > 100 µM (inactive) | GI50 (ACHN): > 100 µM (inactive) | GI50 (LOX IMVI): > 100 µM (inactive) | GI50 (HOP-62): > 100 µM (inactive) | GI50 (HOP-18): > 100 µM (inactive) | GI50 (HT-29): > 100 µM (inactive) | GI50 (KM-20L2): > 100 µM (inactive) | GI50 (NCI-H226): > 100 µM (inactive) | GI50 (SN12C): > 100 µM (inactive) | GI50 (OVCAR-3): > 100 µM (inactive) | GI50 (K562): > 100 µM (inactive) | GI50 (DLD-1): > 100 µM (inactive) | GI50 (CAKI-1): > 100 µM (inactive) | GI50 (XF498): > 100 µM (inactive) | GI50 (OVCAR-5): > 100 µM (inactive) | GI50 (786-0): > 100 µM (inactive) | GI50 (SNB-75): > 100 µM (inactive) | GI50 (CCRF-CEM): > 100 µM (inactive) | GI50 (SK-MEL-5): > 100 µM (inactive) | GI50 (UO-31): > 100 µM (inactive) | GI50 (U-251): > 100 µM (inactive) | GI50 (SK-OV-3): > 100 µM (inactive) | GI50 (MOLT-4): > 100 µM (inactive) | GI50 (Malme-3M): > 100 µM (inactive) | GI50 (SF-295): > 100 µM (inactive) | GI50 (M14): > 100 µM (inactive) | GI50 (RPMI-8226): > 100 µM (inactive) | GI50 (IGROV-1): > 100 µM (inactive) | GI50 (HCT-15): > 100 µM | GI50 (HCC 2998): > 100 µM (inactive) | GI50 (UACC-62): > 100 µM (inactive) | GI50 (A498): > 100 µM (inactive) | GI50 (NCI-H522): > 100 µM (inactive) | GI50 (NCI-H23): > 100 µM (inactive) | GI50 (NCI-H460): > 100 µM (inactive) | GI50 (COLO 205): > 100 µM (inactive) | GI50 (EKVX): > 100 µM (inactive) | GI50 (A549): > 100 µM (inactive) | GI50 (M19-MEL): > 100 µM (inactive) | GI50 (SW-620): > 100 µM (inactive) | GI50 (SNB-78): > 100 µM (inactive) | GI50 (SR): > 100 µM (inactive)
